Data published in patent US6525001B1, “Substituted pyrimidine and pyridine herbicides” (Mid-American Commercialization Corporation, priority 1997, dated 2003).

How the values were obtained:
Assay type in all cases: in vivo
corn (Zea mays) = test: Test C; design: key: 0 was no effect; 100 was complete control
[1] = tested on: giant foxtail (Setaria faberii); test: Test C; design: key: 0 was no effect; 100 was complete control
[2] = tested on: cotton (Gossypium hirsutum); test: Test C; design: key: 0 was no effect; 100 was complete control
[3] = tested on: surinam grass (Brachiaria decumbens); test: Test C; design: key: 0 was no effect; 100 was complete control
[4] = tested on: sunflower (Helianthus annuus); test: Test D; design: key: 0 is no effect; 100 is complete control; details: PREEMERGENCE
[5] = tested on: wild mustard (Sinapis arvensis); test: Test D; design: key: 0 is no effect; 100 is complete control; details: PREEMERGENCE
[6] = tested on: green foxtail (Setaria viridis); test: Test D; design: key: 0 is no effect; 100 is complete control; details: PREEMERGENCE
[7] = tested on: sugar beet (Beta vulgaris); test: Test D; design: key: 0 is no effect; 100 is complete control; details: PREEMERGENCE
[8] = tested on: common poppy (Papaver rhoeas); test: Test D; design: key: 0 is no effect; 100 is complete control; details: PREEMERGENCE
[9] = tested on: Spanishneedles (Bidens bipinnata); test: Test E pre-/postemergence/post directed; design: key: 0 is no effect; 100 is complete control; details: PREEMERGENCE
In short: (§1)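 Injury was scored visually on a 0 to 100 scale (100 = complete control) 13 to 21 days after treatment of greenhouse-grown plants. Test chemicals, in a surfactant-containing non-phytotoxic solvent, were sprayed onto soil within a day of planting, onto plants at the two to four leaf stage, or directed at the base of the plants.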

[10] = tested on: pitted morningglory (Ipomoea lacunosa); test: Test E pre-/postemergence/post directed; design: key: 0 is no effect; 100 is complete control; details: PREEMERGENCE
In short: as §1

[11] = tested on: alexandergrass (Brachiaria plantaginea); test: Test E pre-/postemergence/post directed; design: key: 0 is no effect; 100 is complete control; details: PREEMERGENCE, Rate 250 g/ha
In short: as §1

Structure (SMILES)	Plant response rating, Corn (corn (Zea mays); PREEMERGENCE, Rate 35 g/ha)	Plant response rating, Corn (corn (Zea mays); PREEMERGENCE, Rate 70 g/ha)	Plant response rating, Corn (corn (Zea mays); PREEMERGENCE, Rate 140 g/ha)	Plant response rating, Giant foxtail ([1]; PREEMERGENCE, Rate 35 g/ha)	Plant response rating, Giant foxtail ([1]; PREEMERGENCE, Rate 70 g/ha)	Plant response rating, Giant foxtail ([1]; PREEMERGENCE, Rate 140 g/ha)	Plant response rating, Cotton ([2]; PREEMERGENCE, Rate 35 g/ha)	Plant response rating, Cotton ([2]; PREEMERGENCE, Rate 70 g/ha)	Plant response rating, Cotton ([2]; PREEMERGENCE, Rate 140 g/ha)	Plant response rating, Surinam grass ([3]; PREEMERGENCE, Rate 35 g/ha)	Plant response rating, Surinam grass ([3]; PREEMERGENCE, Rate 70 g/ha)	Plant response rating, Surinam grass ([3]; PREEMERGENCE, Rate 140 g/ha)	Plant response rating, Sunflower ([4]; Rate 62 g/ha)	Plant response rating, Wild mustard ([5]; Rate 62 g/ha)	Plant response rating, Green foxtail ([6]; Rate 62 g/ha)	Plant response rating, Sugar beet ([7]; Rate 62 g/ha)	Plant response rating, Common poppy ([8]; Rate 62 g/ha)	Plant response rating, Sunflower ([4]; Rate 31 g/ha)	Plant response rating, Wild mustard ([5]; Rate 31 g/ha)	Plant response rating, Green foxtail ([6]; Rate 31 g/ha)	also measured
Cc1cnc(-c2ccc(C(F)(F)F)cc2)nc1C(Cl)c1cccc(C(F)(F)F)c1 (racemic) [Compound 21]	0	0	0	85	100	100	0	5	20	0	5	10	–	–	–	–	–	–	–	–	–
CCc1cnc(-c2ccc(C(F)(F)F)cc2)nc1Cc1cccc(C(F)(F)F)c1 [Compound 22]	–	–	–	–	–	–	–	–	–	–	–	–	20	30	10	30	60	–	–	–	Plant response rating, Sunflower ([4]; Rate 125 g/ha): 10; Plant response rating, Sunflower ([4]; Rate 250 g/ha): 30; Plant response rating, Wild mustard ([5]; Rate 125 g/ha): 60; Plant response rating, Wild mustard ([5]; Rate 250 g/ha): 30; Plant response rating, Green foxtail ([6]; Rate 125 g/ha): 100; Plant response rating, Green foxtail ([6]; Rate 250 g/ha): 100; Plant response rating, Sugar beet ([7]; Rate 125 g/ha): 100; Plant response rating, Sugar beet ([7]; Rate 250 g/ha): 80; Plant response rating, Common poppy ([8]; Rate 125 g/ha): 70; Plant response rating, Common poppy ([8]; Rate 250 g/ha): 70
Cc1cnc(-n2ccc(C(F)(F)F)n2)nc1Cc1cccc(OC(F)(F)F)c1 [Compound 42]	5	5	5	70	80	100	30	60	60	50	55	70	–	–	–	–	–	–	–	–	Plant response rating, Spanishneedles ([9]; Rate 125 g/ha): 100
COc1cnc(-c2ccc(C(F)(F)F)cc2)nc1Cc1cccc(C(F)(F)F)c1 [Compound 23]	0	0	5	85	100	100	5	75	75	5	45	60	–	–	–	–	–	–	–	–	Plant response rating, Spanishneedles ([9]; Rate 125 g/ha): 100; Plant response rating, Spanishneedles ([9]; Rate 250 g/ha): 100
Cc1cnc(-n2ccc(C(F)(F)F)n2)nc1Cn1ccc(C(F)(F)F)n1 [Compound 52]	0	45	50	70	85	100	0	0	70	5	40	70	0	90	80	100	–	0	90	50	Plant response rating, P. morninglory ([10]; Rate 64 g/ha): 100; Plant response rating, P. morninglory ([10]; Rate 125 g/ha): 100; Plant response rating, Sunflower ([4]; Rate 125 g/ha): 0; Plant response rating, Wild mustard ([5]; Rate 125 g/ha): 100; Plant response rating, Green foxtail ([6]; Rate 125 g/ha): 100; Plant response rating, Sugar beet ([7]; Rate 31 g/ha): 100; Plant response rating, Sugar beet ([7]; Rate 125 g/ha): 100
CCc1cnc(-n2ccc(C(F)(F)F)n2)nc1Cc1cccc(C(F)(F)F)c1 [Compound 46]	0	0	5	100	100	100	0	5	40	0	5	25	30	100	100	100	100	10	90	80	Plant response rating, Sugar beet ([7]; Rate 31 g/ha): 70; Plant response rating, Common poppy ([8]; Rate 31 g/ha): 100
Cc1cnc(-c2ccc(C(F)(F)F)cc2)nc1Cn1ccc(C(F)(F)F)n1 [compound 9]	0	5	10	90	100	100	10	35	50	35	80	90	–	–	–	–	–	–	–	–	Plant response rating, P. morninglory ([10]; Rate 250 g/ha): 100; Plant response rating, Alexandergrass [11]: 100; Plant response rating, Corn (corn (Zea mays); POSTEMERGENCE, Rate 35 g/ha): 10; Plant response rating, Corn (corn (Zea mays); POSTEMERGENCE, Rate 70 g/ha): 15; Plant response rating, Corn (corn (Zea mays); POSTEMERGENCE, Rate 140 g/ha): 15; Plant response rating, Giant foxtail ([1]; POSTEMERGENCE, Rate 35 g/ha): 15; Plant response rating, Giant foxtail ([1]; POSTEMERGENCE, Rate 70 g/ha): 15; Plant response rating, Giant foxtail ([1]; POSTEMERGENCE, Rate 140 g/ha): 30; Plant response rating, Cotton ([2]; POSTEMERGENCE, Rate 35 g/ha): 70; Plant response rating, Cotton ([2]; POSTEMERGENCE, Rate 70 g/ha): 80; Plant response rating, Cotton ([2]; POSTEMERGENCE, Rate 140 g/ha): 90; Plant response rating, Surinam grass ([3]; POSTEMERGENCE, Rate 35 g/ha): 5; Plant response rating, Surinam grass ([3]; POSTEMERGENCE, Rate 70 g/ha): 5; Plant response rating, Surinam grass ([3]; POSTEMERGENCE, Rate 140 g/ha): 20
Cc1cnc(-n2cnc(C(F)(F)F)n2)nc1Cc1cccc(C(F)(F)F)c1 [Compound 43]	0	30	55	100	100	100	0	0	10	0	5	10	–	–	–	–	–	–	–	–	–
Cc1cnc(-n2cnc(C(F)(F)F)n2)nc1Cn1ccc(C(F)(F)F)n1 [Compound 51]	–	–	–	–	–	–	–	–	–	–	–	–	40	100	100	100	100	40	100	100	Plant response rating, Sugar beet ([7]; Rate 31 g/ha): 100; Plant response rating, Common poppy ([8]; Rate 31 g/ha): 100
Cc1cnc(-n2ccc(C(F)(F)F)n2)nc1C(=O)c1cccc(OC(F)(F)F)c1 [Compound 66]	0	0	0	0	0	0	0	0	0	5	5	20	–	–	–	–	–	–	–	–	–
